The target of one experiment is T1, 14-3-3 isoform gamma (Homo sapiens, UniProt P61981).
T1 construct: His6; made in house; host or cells: Escherichia coli BL21 Rosetta (DE3)
T1 sequence (P61981 1-247): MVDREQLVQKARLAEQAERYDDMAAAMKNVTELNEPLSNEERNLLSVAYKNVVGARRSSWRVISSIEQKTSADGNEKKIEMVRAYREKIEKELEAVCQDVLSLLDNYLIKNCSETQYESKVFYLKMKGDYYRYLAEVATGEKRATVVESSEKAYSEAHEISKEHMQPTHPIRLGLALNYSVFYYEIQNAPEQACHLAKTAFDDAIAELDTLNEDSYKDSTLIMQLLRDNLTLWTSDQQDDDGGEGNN
Nature of the experiment: Label-free microscale thermophoresis (MST) binding, 14-3-3 gamma. The settings on record: 0.6 µM 14-3-3 protein, 25 mM MES pH 6.5, 5 mM MgCl2, 5 mM CaCl2, 25°C, Kd from duplicate measurements, aggr. = no successful experiment. The procedure:
(§1) The binding of phosphorylated sirtuin peptides (Fig. 1 ▸) was analyzed using the change in the intrinsic fluorescence signal of the 14-3-3 proteins measured with label-free microscale thermophoresis using a Nanotemper Monolith NT.LabelFree or NT.115. A typical binding experiment using 0.6 µM 14-3-3 protein was performed in a modified MST buffer consisting of 25 mM MES pH 6.5, 5 mM MgCl2, 5 mM CaCl2. The measurements were performed at 25°C using a LED power of 10–40%. All measurements were performed at least in duplicate, and the results shown are representative measurements individually fitted using GraFit 7 (Erathicus Software, Horley, United Kingdom).
Figure 1 Classification and analysis of sirtuin PSSM results for potential 14-3-3 phosphoserine binding sites. Peptides with a gray background were not analyzed experimentally. Score is the overall PSSM score for the phosphorylation site; rank is the order within the 17 proposed sirtuin binding sites. Conserved residues in the 14-3-3 motifs are marked in green. Residues with restricted (proline) or very flexible (glycine) protein backbone or with a very large side chain (tryptophan) are marked in red. Amino acids with the same or similar hydrophobicity/size are shown in magenta. Kd values from duplicate measurements are colored green for Kd < 100 µM. Fields marked in red indicate no binding or no successful experiment. […]

For a further experiment, the target named is T2, 14-3-3 isoform theta (Homo sapiens, UniProt P27348).
T2 construct: His6; made in house; host or cells: Escherichia coli BL21 Rosetta (DE3)
T2 sequence (P27348 1-245): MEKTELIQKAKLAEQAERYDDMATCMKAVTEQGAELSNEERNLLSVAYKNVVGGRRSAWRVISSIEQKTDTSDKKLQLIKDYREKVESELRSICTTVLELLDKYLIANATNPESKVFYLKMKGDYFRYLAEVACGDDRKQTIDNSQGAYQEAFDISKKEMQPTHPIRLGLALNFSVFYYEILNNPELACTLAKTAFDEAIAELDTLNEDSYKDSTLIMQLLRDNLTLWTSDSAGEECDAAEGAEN
The experiment in a line: Label-free microscale thermophoresis (MST) binding, 14-3-3 theta. The settings on record: for Affinity estimates by MicroScale Thermophoresis, 14-3-3 isoform theta (Kd): label-free MST, 0.6 µM 14-3-3 protein, 25 mM MES pH 6.5, 5 mM MgCl2, 5 mM CaCl2, 25°C, Kd from duplicate measurements. The procedure:
as §1
(§2) Figure 1 Classification and analysis of sirtuin PSSM results for potential 14-3-3 phosphoserine binding sites. Peptides with a gray background were not analyzed experimentally. Score is the overall PSSM score for the phosphorylation site; rank is the order within the 17 proposed sirtuin binding sites. Conserved residues in the 14-3-3 motifs are marked in green. Residues with restricted (proline) or very flexible (glycine) protein backbone or with a very large side chain (tryptophan) are marked in red. Amino acids with the same or similar hydrophobicity/size are shown in magenta. Kd values from duplicate measurements are colored green for Kd < 100 µM. Fields marked in red indicate no binding or no successful experiment. TEXT PRINTED IN THE PICTURE: Sirt1 S26: Affinity estimates by MicroScale Thermophoresis [μM], 14-3-3 isoform sigma: none | Sirt1 S670: Affinity estimates by MicroScale Thermophoresis [μM], 14-3-3 isoform gamma: aggr.; Affinity estimates by MicroScale Thermophoresis [μM], 14-3-3 isoform epsilon: > 183; Affinity estimates by MicroScale Thermophoresis [μM], 14-3-3 isoform theta: 93; Affinity estimates by MicroScale Thermophoresis [μM], 14-3-3 isoform sigma: 5 | Sirt3 S103: Affinity estimates by MicroScale Thermophoresis [μM], 14-3-3 isoform gamma: aggr.; Affinity estimates by MicroScale Thermophoresis [μM], 14-3-3 isoform epsilon: > 267; Affinity estimates by MicroScale Thermophoresis [μM], 14-3-3 isoform theta: 52; Affinity estimates by MicroScale Thermophoresis [μM], 14-3-3 isoform sigma: 10 | Sirt3 S103wt: Affinity estimates by MicroScale Thermophoresis [μM], 14-3-3 isoform gamma: aggr.; Affinity estimates by MicroScale Thermophoresis [μM], 14-3-3 isoform theta: none; Affinity estimates by MicroScale Thermophoresis [μM], 14-3-3 isoform sigma: none | Sirt3 S105: Affinity estimates by MicroScale Thermophoresis [μM], 14-3-3 isoform gamma: aggr.; Affinity estimates by MicroScale Thermophoresis [μM], 14-3-3 isoform epsilon: > 215; Affinity estimates by MicroScale Thermophoresis [μM], 14-3-3 isoform theta: 60; Affinity estimates by MicroScale Thermophoresis [μM], 14-3-3 isoform sigma: none | Sirt5 S168: Affinity estimates by MicroScale Thermophoresis [μM], 14-3-3 isoform epsilon: aggr.; Affinity estimates by MicroScale Thermophoresis [μM], 14-3-3 isoform theta: aggr.; Affinity estimates by MicroScale Thermophoresis [μM], 14-3-3 isoform sigma: > 329 | Sirt6 T337: Affinity estimates by MicroScale Thermophoresis [μM], 14-3-3 isoform epsilon: > 420; Affinity estimates by MicroScale Thermophoresis [μM], 14-3-3 isoform sigma: 12 | Sirt6 S338: Affinity estimates by MicroScale Thermophoresis [μM], 14-3-3 isoform epsilon: 19; Affinity estimates by MicroScale Thermophoresis [μM], 14-3-3 isoform sigma: 24 | Sirt7 S136: Affinity estimates by MicroScale Thermophoresis [μM], 14-3-3 isoform epsilon: none; Affinity estimates by MicroScale Thermophoresis [μM], 14-3-3 isoform theta: 30; Affinity estimates by MicroScale Thermophoresis [μM], 14-3-3 isoform sigma: 49

A further experiment concerns the target T3, 14-3-3σ-ΔC (Homo sapiens, UniProt P31947).
T3 construct: His6; made in house; host or cells: Escherichia coli BL21 Rosetta (DE3)
T3 sequence (P31947 1-231 limits assumed): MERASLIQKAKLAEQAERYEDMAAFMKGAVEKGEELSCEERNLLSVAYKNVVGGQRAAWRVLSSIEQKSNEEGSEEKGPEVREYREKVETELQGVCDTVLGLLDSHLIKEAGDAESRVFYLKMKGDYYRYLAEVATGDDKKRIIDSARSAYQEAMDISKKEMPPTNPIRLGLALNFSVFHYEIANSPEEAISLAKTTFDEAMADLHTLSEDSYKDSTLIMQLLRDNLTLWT
Nature of the experiment: Label-free microscale thermophoresis (MST) binding, 14-3-3σ. The conditions noted are these: for Affinity estimates by MicroScale Thermophoresis, 14-3-3 isoform sigma (Kd): Fig. 1, label-free MST, 0.6 µM 14-3-3 protein, 25 mM MES pH 6.5, 5 mM MgCl2, 5 mM CaCl2, 25°C, Kd from duplicate measurements. The procedure: as §1, §2
For nine of the sites, including sites from all sirtuin isoforms except Sirt4, endecameric phosphopeptides were chemically synthesized for in vitro analysis. […]

A further experiment addresses T4, 14-3-3 isoform epsilon (Homo sapiens, UniProt P62258).
T4 construct: His6; made in house; host or cells: Escherichia coli BL21 Rosetta (DE3)
T4 sequence (P62258 1-255): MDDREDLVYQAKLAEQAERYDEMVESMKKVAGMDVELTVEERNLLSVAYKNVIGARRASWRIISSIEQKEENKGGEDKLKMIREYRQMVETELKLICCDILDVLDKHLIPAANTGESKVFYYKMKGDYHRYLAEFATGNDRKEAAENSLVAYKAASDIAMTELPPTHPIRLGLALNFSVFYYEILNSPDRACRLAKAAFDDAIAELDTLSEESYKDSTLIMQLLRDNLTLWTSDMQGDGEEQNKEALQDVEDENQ
The experiment in a line: Label-free microscale thermophoresis (MST) binding, 14-3-3 epsilon. The procedure:
as §1, §2
A general note: Microscale thermophoresis detects binding through changes in fluorescence in a small temperature gradient.

Like-named read-outs stand apart in the source and are kept apart here. Where a SMILES comes first, the peptide text is derived from it. [ ]: non-standard residue; d: D form. pT = C[C@@H](OP(=O)(O)O)[C@H](N)C(=O)O; pS = N[C@@H](COP(=O)(O)O)C(=O)O A value given as a limit tells only on which side of the number the result lay.

For the compound `CC[C@H](C)[C@H](NC(=O)[C@H](CO)NC(=O)[C@H](CCCNC(=N)N)NC(=O)[C@H](CCCNC(=N)N)NC(=O)CN)C(=O)N[C@@H](CO)C(=O)N[C@@H](Cc1ccccc1)C(=O)N[C@@H](CO)C(=O)N[C@H](C(=O)NCC(=O)N[C@@H](C)C(=O)O)C(C)C` [Sirt3^S103] (H-GRRSISFSVGA-OH), the “Affinity estimates by MicroScale Thermophoresis, 14-3-3 isoform gamma (Kd)” value (“Affinity estimates … 14-3-3 isoform gamma (Kd)” below) at 14-3-3 isoform gamma is given as “aggr”. For the same compound, the “Affinity estimates by MicroScale Thermophoresis, 14-3-3 isoform theta (Kd)” value at 14-3-3 isoform theta is on record as “none”. For the same compound, at 14-3-3σ-ΔC, the “Affinity estimates by MicroScale Thermophoresis, 14-3-3 isoform sigma (Kd)” value is “none”.
Regarding `CC[C@H](C)[C@H](NC(=O)[C@H](CO)NC(=O)[C@H](CCCNC(=N)N)NC(=O)[C@H](CCCNC(=N)N)NC(=O)CN)C(=O)N[C@@H](COP(=O)(O)O)C(=O)N[C@@H](Cc1ccccc1)C(=O)N[C@@H](CO)C(=O)N[C@H](C(=O)NCC(=O)N[C@@H](C)C(=O)O)C(C)C` [Sirt3^pS103] (H-GRRSI[pS]FSVGA-OH), the “Affinity estimates … 14-3-3 isoform gamma (Kd)” value at 14-3-3 isoform gamma is reported as “aggr”. Moreover, the results for the Kd at 14-3-3 isoform epsilon, on 14-3-3 isoform theta and at 14-3-3σ-ΔC were more than 267 µM, 52 µM and 2.1 ± 1.1 µM, respectively.
With `CC[C@H](C)[C@H](NC(=O)[C@H](CO)NC(=O)[C@@H](N)CCCNC(=N)N)C(=O)N[C@@H](CO)C(=O)N[C@@H](Cc1ccccc1)C(=O)N[C@@H](COP(=O)(O)O)C(=O)N[C@H](C(=O)NCC(=O)N[C@@H](C)C(=O)N[C@@H](CO)C(=O)N[C@@H](CO)C(=O)O)C(C)C` [Sirt3^pS105] (H-RSISF[pS]VGASS-OH), at 14-3-3 isoform gamma, the “Affinity estimates … 14-3-3 isoform gamma (Kd)” value was “aggr”. Moreover, the Kd (as a rule, the concentration at which binding is half-saturated) was more than 215 µM on 14-3-3 isoform epsilon, 60 µM on 14-3-3 isoform theta and 19.4 ± 3 µM on 14-3-3σ-ΔC. Moreover, the “Affinity estimates by MicroScale Thermophoresis, 14-3-3 isoform sigma (Kd)” value at 14-3-3σ-ΔC is on record as “none”.
Regarding `CC(C)[C@H](NC(=O)CNC(=O)[C@H](CS)NC(=O)[C@H](COP(=O)(O)O)NC(=O)[C@@H](NC(=O)[C@H](CS)NC(=O)[C@H](CCCNC(=N)N)NC(=O)[C@@H](NC(=O)[C@@H](N)CCCCN)[C@@H](C)O)[C@@H](C)O)C(=O)N[C@H](C(=O)N[C@@H](C)C(=O)O)C(C)C` [Sirt5 S168] (H-KTRCT[pS]CGVVA-OH; N-terminus and C-terminus assumed), the “Affinity estimates by MicroScale Thermophoresis, 14-3-3 isoform epsilon (Kd)” value on 14-3-3 isoform epsilon (label-free MST, 0.6 µM 14-3-3 protein, 25 mM MES pH 6.5, 5 mM MgCl2, 5 mM CaCl2, 25°C, Kd from duplicate measurements) is reported as “aggr”. At 14-3-3 isoform theta, the “Affinity estimates by MicroScale Thermophoresis, 14-3-3 isoform theta (Kd)” value is on record as “aggr”.
Take `C[C@H](NC(=O)[C@@H]1CCCN1C(=O)[C@H](COP(=O)(O)O)NC(=O)[C@@H](NC(=O)[C@@H]1CCCN1C(=O)[C@H](CCCNC(=N)N)NC(=O)[C@H](CCC(=O)O)NC(=O)[C@@H](N)CCCNC(=N)N)[C@@H](C)O)C(=O)N1CCC[C@H]1C(=O)N[C@@H](Cc1c[nH]cn1)C(=O)N[C@@H](CCCNC(=N)N)C(=O)O` [Sirt6^pS338] (H-RERPT[pS]PAPHR-OH): at 14-3-3 isoform epsilon (label-free MST, 0.6 µM 14-3-3 protein, 25 mM MES pH 6.5, 5 mM MgCl2, 5 mM CaCl2, 25°C, Kd from duplicate measurements, read-out: Affinity estimates by MicroScale Thermophoresis, 14-3-3 isoform epsilon (Kd)), the Kd was 19 µM.
`C[C@H](NC(=O)[C@@H]1CCCN1C(=O)[C@H](CO)NC(=O)[C@@H](NC(=O)[C@@H]1CCCN1C(=O)[C@H](CCCNC(=N)N)NC(=O)[C@H](CCC(=O)O)NC(=O)[C@H](CCCNC(=N)N)NC(=O)[C@@H](N)CCCCN)[C@@H](C)OP(=O)(O)O)C(=O)N1CCC[C@H]1C(=O)N[C@@H](Cc1c[nH]cn1)C(=O)O` [Sirt6^pT337] (H-KRERP[pT]SPAPH-OH) displayed a Kd at 14-3-3 isoform epsilon of more than 420 µM.

The record behind these values is PMC12809495, “Potential 14-3-3 binding sites in sirtuins reveal extended phosphosite-recognition modes” (Acta Crystallographica Section F: Structural Biology …, 2026).
